Assays:
Cbl (aa49-434) = target: T1, Cbl (aa49-434) (Homo sapiens, UniProt P22681); assay: Co-expressed Cbl with BirA biochemical assay (CBL/E2-Ub binding, HTRF); conditions: 0.6 nM Cbl co-expressed with BirA, read-out: co-express CBL/E2-Ub-binding assay IC50
T1 construct: Cbl (aa49-434, in-house); made in house
T1 sequence (P22681 49-434): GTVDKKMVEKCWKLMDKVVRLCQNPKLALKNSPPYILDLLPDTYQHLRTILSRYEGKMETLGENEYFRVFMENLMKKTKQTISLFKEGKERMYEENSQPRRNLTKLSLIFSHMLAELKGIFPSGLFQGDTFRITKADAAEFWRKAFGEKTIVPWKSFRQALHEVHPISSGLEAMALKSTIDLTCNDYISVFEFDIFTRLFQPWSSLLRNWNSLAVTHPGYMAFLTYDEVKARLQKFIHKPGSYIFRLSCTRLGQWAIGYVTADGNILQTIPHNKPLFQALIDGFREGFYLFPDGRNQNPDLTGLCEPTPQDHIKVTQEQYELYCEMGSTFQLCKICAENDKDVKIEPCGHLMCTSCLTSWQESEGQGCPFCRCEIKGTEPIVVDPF
From the text: (§1) The assay in the absence of a Cbl-b/Cbl inhibitor, where phosphorylation of Cbl-b/Cbl by the Src kinase allows UbcH5B-Ub to bind to Cbl-b/Cbl and brings the Bodipy-Fluorescein tagged ubiquitin in proximity to the streptavidin-terbium bound to the N-terminal biotinylated Avi-tagged Cbl-b/Cbl. […] The lack of a FRET signal indicates Cbl-b/Cbl is inhibited by the Cbl-b/Cbl inhibitor.

Cbl-b (aa36-427) = target: T2, Cbl-b (aa36-427) (Homo sapiens, UniProt Q13191); assay: Co-expressed Cbl-b with BirA biochemical assay (CBLB/E2-Ub binding, HTRF); conditions: 0.6 nM Cbl-b co-expressed with BirA, HTRF; read-out: co-express CBLB/E2-Ub-binding assay IC50
T2 construct: Cbl-b (aa36-427, in-house); made in house
From the text: as §1

T2 sequence (Q13191 36-427): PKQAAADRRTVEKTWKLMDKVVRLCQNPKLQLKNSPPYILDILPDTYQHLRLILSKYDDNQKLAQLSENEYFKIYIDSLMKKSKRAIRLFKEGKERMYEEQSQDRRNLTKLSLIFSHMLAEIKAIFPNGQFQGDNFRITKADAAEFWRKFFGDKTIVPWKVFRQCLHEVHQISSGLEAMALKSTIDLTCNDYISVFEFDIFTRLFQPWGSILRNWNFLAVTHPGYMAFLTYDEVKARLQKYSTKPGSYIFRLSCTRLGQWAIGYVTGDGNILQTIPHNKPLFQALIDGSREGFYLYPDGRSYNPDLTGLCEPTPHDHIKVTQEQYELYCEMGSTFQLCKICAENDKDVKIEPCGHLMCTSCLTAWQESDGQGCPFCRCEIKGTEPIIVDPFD

Cn1cnnc1[C@]1(c2cccc(NC(=O)c3cc(CNC4(C)CCC4)cn4ccnc34)c2)C[C@H](CC#N)C1 [Compound A36, N-(3-((1s, 3s)-3-(cyanomethyl)-1-(4-methyl-4H-1,2,4-triazol-3-yl)cyclobutyl)phenyl)-6-(((1-methylcyclobutyl)amino)methyl)imidazo[1,2-a]pyridine-8-carboxamide compound with N-(3-((1s, 3s)-3-(cyanomethyl)-1-(4-methyl-4H-1,2,4-triazol-3-yl)cyclobutyl)phenyl)-6-formylimidazo[1,2-a]pyridine-8-carboxamide (1:1)]
IC50 (Cbl (aa49-434)): 16 nM | IC50 (Cbl-b (aa36-427)): 1.7 nM

Cn1cnnc1[C@]1(c2cccc(NC(=O)c3cc(CNCC4(F)CCC4)cn4ccnc34)c2)C[C@H](CC#N)C1 [Compound A37, N-(3-((1s, 3s)-3-(cyanomethyl)-1-(4-methyl-4H-1,2,4-triazol-3-yl)cyclobutyl)phenyl)-6-((((1-fluorocyclobutyl)methyl)amino)methyl)imidazo[1,2-a]pyridine-8-carboxamide]
IC50 (Cbl (aa49-434)): 4.8 nM | IC50 (Cbl-b (aa36-427)): 0.8 nM

C[C@H](NCc1cc(C(=O)Nc2cccc([C@]3(c4nncn4C)C[C@@H](CC#N)C3)c2)c2nccn2c1)C1CCC1 [Compound A38, N-(3-((1s,3R)-3-(cyanomethyl)-1-(4-methyl-4H-1,2,4-triazol-3-yl)cyclobutyl)phenyl)-6-((((S)-1-cyclobutylethyl)amino)methyl)imidazo[1,2-a]pyridine-8-carboxamide]
IC50 (Cbl (aa49-434)): 2.4 nM | IC50 (Cbl-b (aa36-427)): 1.4 nM

Cn1cnnc1[C@]1(c2cccc(NC(=O)c3cc(CNC4(C)CCC4)cn4ccnc34)c2)C[C@H](C)C1 [Compound A39, N-(3-((1s, 3s)-3-methyl-1-(4-methyl-4H-1,2,4-triazol-3-yl)cyclobutyl)phenyl)-6-(((1-methylcyclobutyl)amino)methyl)imidazo[1,2-a]pyridine-8-carboxamide]
IC50 (Cbl (aa49-434)): 14.1 nM | IC50 (Cbl-b (aa36-427)): 2.7 nM

C[C@H](NCc1cc(C(=O)Nc2cccc([C@]3(c4nncn4C)C[C@@H](C)C3)c2)c2nccn2c1)C1CCCC1 [Compound A40, 6-((((S)-1-cyclopentylethyl)amino)methyl)-N-(3-((1s,3R)-3-methyl-1-(4-methyl-4H-1,2,4-triazol-3-yl)cyclobutyl)phenyl)imidazo[1,2-a]pyridine-8-carboxamide]
IC50 (Cbl (aa49-434)): 3.1 nM | IC50 (Cbl-b (aa36-427)): 1.6 nM

Cn1cnnc1[C@]1(c2cccc(NC(=O)c3cc(CNC4(C)CC4)cn4c(Cl)cnc34)c2)C[C@H](CC#N)C1 [Compound A41, 3-chloro-N-(3-((1s, 3s)-3-(cyanomethyl)-1-(4-methyl-4H-1,2,4-triazol-3-yl)cyclobutyl)phenyl)-6-(((1-methylcyclopropyl)amino)methyl)imidazo[1,2-a]pyridine-8-carboxamide]
IC50 (Cbl (aa49-434)): 0.9 nM | IC50 (Cbl-b (aa36-427)): 0.2 nM

Cn1cnnc1[C@]1(c2cccc(NC(=O)c3cc(CNCC4CCCC4)cn4ccnc34)c2)C[C@H](C)C1 [Compound A42, 6-(((cyclopentylmethyl)amino)methyl)-N-(3-((1s, 3s)-3-methyl-1-(4-methyl-4H-1,2,4-triazol-3-yl)cyclobutyl)phenyl)imidazo[1,2-a]pyridine-8-carboxamide]
IC50 (Cbl (aa49-434)): 7.6 nM | IC50 (Cbl-b (aa36-427)): 1.8 nM

Cn1cnnc1[C@]1(c2cccc(NC(=O)c3cc(CNCC4CCC4)cn4ccnc34)c2)C[C@H](CC#N)C1 [Compound A43, N-(3-((1s, 3s)-3-(cyanomethyl)-1-(4-methyl-4H-1,2,4-triazol-3-yl)cyclobutyl)phenyl)-6-(((cyclobutylmethyl)amino)methyl)imidazo[1,2-a]pyridine-8-carboxamide]
IC50 (Cbl (aa49-434)): 12 nM | IC50 (Cbl-b (aa36-427)): 2 nM

Cn1cnnc1[C@]1(c2cccc(NC(=O)c3cc(CNC4(C)CCC4)cn4c(F)cnc34)c2)C[C@H](C)C1 [Compound A44, 3-fluoro-N-(3-((1s, 3s)-3-methyl-1-(4-methyl-4H-1,2,4-triazol-3-yl)cyclobutyl)phenyl)-6-(((1-methylcyclobutyl)amino)methyl)imidazo[1,2-a]pyridine-8-carboxamide]
IC50 (Cbl (aa49-434)): 7.7 nM | IC50 (Cbl-b (aa36-427)): 1.8 nM
